30 molecules from patent US11634396B2 (priority 2021, dated 2023) can be followed below.

What is called IC50 is the concentration that inhibits the measured activity by half.

Where two headings read alike, the source gives them in different places. Some results are limits rather than exact numbers.

This assay has as its target human mOR (Homo sapiens (Human), UniProt P35372). Kind of assay: cell-based.
Setting [1] is: CHO Tag-lite human mOR stable cell line, forskolin 4 μM and DAMGO at EC90, read-out: mOR cAMP Antagonist Assay IC50.

Sequence of human mOR (P35372 whole entry): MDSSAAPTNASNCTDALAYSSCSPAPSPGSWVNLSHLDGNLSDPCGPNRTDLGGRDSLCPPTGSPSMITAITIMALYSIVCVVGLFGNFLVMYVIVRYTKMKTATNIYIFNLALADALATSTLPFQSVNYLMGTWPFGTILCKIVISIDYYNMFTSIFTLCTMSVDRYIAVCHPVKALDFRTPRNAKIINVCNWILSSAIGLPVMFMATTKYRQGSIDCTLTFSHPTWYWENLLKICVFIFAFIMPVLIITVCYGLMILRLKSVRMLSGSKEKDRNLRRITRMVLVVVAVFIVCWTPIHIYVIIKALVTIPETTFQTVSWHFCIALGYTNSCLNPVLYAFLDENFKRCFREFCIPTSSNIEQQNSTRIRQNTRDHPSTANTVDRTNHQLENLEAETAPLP

As for `CN(C)[C@H](CNC(=O)C[C@H](c1cncc(Cl)c1)C1(C(F)(F)F)CC1)Cc1ccc2[nH]ncc2c1` [Compound 205, (R)-3-(5-chloropyridin-3-yl)-N-((S)-2-(dimethylamino)-3-(1H-indazol-5-yl)propyl)-3-(1-(trifluoromethyl)cyclopropyl) propanamide], the IC50 under setting [1] was less than 0.3 µM.

Turning to `CC(C)[C@H](CC(=O)NC[C@H](Cc1ccc2[nH]ncc2c1)N(C)C)c1cccnc1` [Compound 206, (S)-N-((S)-2-(dimethylamino)-3-(1H-indazol-5-yl)propyl)-4-methyl-3-(pyridin-3-yl)pentanamide], the IC50 under setting [1] is 0.3 to 3 µM.

In the case of `CN(C)[C@H](CNC(=O)C[C@H](c1cccnc1)C1CC1)Cc1ccc2[nH]ncc2c1` [Compound 207, (S)-3-cyclopropyl-N-((S)-2-(dimethylamino)-3-(1H-indazol-5-yl)propyl)-3-(pyridin-3-yl)propanamide], the IC50 under setting [1] is more than 3 µM.

For `CN(C)[C@H](CNC(=O)C[C@@H](c1ccncc1)C1(C(F)(F)F)CC1)Cc1ccc2[nH]ncc2c1` [Compound 208, (S)-N-((S)-2-(dimethylamino)-3-(1H-indazol-5-yl)propyl)-3-(pyridin-4-yl)-3-(1-(trifluoromethyl)cyclopropyl)propanamide], the half-maximal inhibitory concentration (IC50) is less than 0.3 µM.

Consider `CN(C)[C@H](CNC(=O)C[C@H](c1ccncc1)C1(C(F)(F)F)CC1)Cc1ccc2[nH]ncc2c1` [Compound 209], for which the IC50 is less than 0.3 µM.

`Cc1ccc([C@@H](CC(=O)NC[C@H](Cc2ccc3[nH]ncc3c2)N(C)C)C2(C(F)(F)F)CC2)cn1` [Compound 211, (R)-N-((S)-2-(dimethylamino)-3-(1H-indazol-5-yl)propyl)-3-(6-methylpyridin-3-yl)-3-(1-(trifluoromethyl)cyclopropyl)propanamide]: the IC50 is less than 0.3 µM.

`CN(C)[C@H](CNC(=O)C[C@@H](CC1CC1)c1cccnc1)Cc1ccc2[nH]ncc2c1` [Compound 212, (R)-4-cyclopropyl-N-((S)-2-(dimethylamino)-3-(1H-indazol-5-yl)propyl)-3-(pyridin-3-yl)butanamide]: the IC50 under setting [1] was more than 3 µM.

As for `CN(C)[C@H](CNC(=O)C[C@H](c1cccnc1)C1(C(F)(F)F)CC1)Cc1ccc2[nH]ncc2c1` [Compound 213, (R)-N-((S)-2-(dimethylamino)-3-(1H-indazol-5-yl)propyl)-3-(pyridin-3-yl)-3-(1-(trifluoromethyl)cyclopropyl)propanamide], the IC50 was less than 0.3 µM.

Turning to `CN(C)[C@H](CNC(=O)C[C@H](c1cccnc1)C1(C(F)(F)F)CC1)Cc1cc(F)c2[nH]ncc2c1` [Compound 230, (R)-N-((S)-2-(dimethylamino)-3-(7-fluoro-1H-indazol-5-yl)propyl)-3-(pyridin-3-yl)-3-(1-(trifluoromethyl)cyclopropyl)propanamide], the IC50 is less than 0.3 µM.

With `Cc1cc(C[C@@H](CNC(=O)C[C@H](c2cccnc2)C2(C(F)(F)F)CC2)N(C)C)cc2cn[nH]c12` [Compound 231, (R)-N-((S)-2-(dimethylamino)-3-(7-methyl-1H-indazol-5-yl)propyl)-3-(pyridin-3-yl)-3-(1-(trifluoromethyl)cyclopropyl)propanamide; bis(trifluoroacetic acid)], the IC50 is less than 0.3 µM.

Regarding `CN(C)[C@H](CNC(=O)C[C@H](c1cccnc1)C1(C(F)(F)F)CC1)Cc1ccc2cn[nH]c2c1` [Compound 232, (R)-N-((S)-2-(dimethylamino)-3-(1H-indazol-6-yl)propyl)-3-(pyridin-3-yl)-3-(1-(trifluoromethyl)cyclopropyl)propanamide], the IC50 is 0.3 to 3 µM.

With `Cc1ncc([C@@H](CC(=O)NC[C@H](Cc2cc3cn[nH]c3cc2Cl)N(C)C)C2(C(F)(F)F)CC2)cn1` [Compound 233, (R)-N-((S)-3-(6-chloro-H-indazol-5-yl)-2-(dimethylamino)propyl)-3-(2-methylpyrimidin-5-yl)-3-(1-(trifluoromethyl)cyclopropyl) propanamide], the IC50 under setting [1] is less than 0.3 µM.

Consider `CN(C)[C@H](CNC(=O)C[C@H](c1ccncc1)C1(C(F)(F)F)CC1)Cc1cc2cn[nH]c2cc1Cl` [Compound 234, (R)-N-((S)-3-(6-chloro-H-indazol-5-yl)-2-(dimethylamino)propyl)-3-(pyridin-4-yl)-3-(1-(trifluoromethyl)cyclopropyl)propanamide], for which the IC50 under setting [1] is less than 0.3 µM.

As for `CN(C)[C@H](CNC(=O)C[C@H](c1cccnc1)C1(C(F)(F)F)CC1)Cc1cc2cn[nH]c2cc1Cl` [Compound 235, (R)-N-((S)-3-(6-chloro-1H-indazol-5-yl)-2-(dimethylamino)propyl)-3-(pyridin-3-yl)-3-(1-(trifluoromethyl)cyclopropyl)propanamide], the IC50 was less than 0.3 µM.

With `CN(C)[C@H](CNC(=O)C[C@@H](c1cccnc1)C1(C(F)(F)F)CC1)Cc1ccc2[nH]ncc2c1` [Compound 237, (S)-N-((S)-2-(dimethylamino)-3-(1H-indazol-5-yl)propyl)-3-(pyridin-3-yl)-3-(1-(trifluoromethyl)cyclopropyl)propanamide], under setting [1], the IC50 is less than 0.3 µM.

Turning to `CN(C)[C@H](CNC(=O)C[C@H](c1cccnc1)C1(C(F)(F)F)CC1)Cc1cc(F)c(O)cc1F` [Compound 238, (R)-N-((S)-3-(2,5-difluoro-4-hydroxyphenyl)-2-(dimethylamino)propyl)-3-(pyridin-3-yl)-3-(1-(trifluoromethyl)cyclopropyl)propanamide], the IC50 is less than 0.3 µM.

`CN(C)[C@H](CNC(=O)C[C@H](c1ccncc1)C1CC1)Cc1c(F)cc(O)cc1F` [Compound 239, (S)-3-cyclopropyl-N-((S)-3-(2,6-difluoro-4-hydroxyphenyl)-2-(dimethylamino)propyl)-3-(pyridin-4-yl)propanamide]: the IC50 is less than 0.3 µM.

Take `Cc1cc(O)cc(C)c1C[C@@H](CNC(=O)C[C@H](CC1CC1)c1cccnc1)N(C)C` [Compound 241, (S)-4-cyclopropyl-N-((S)-2-(dimethylamino)-3-(4-hydroxy-2,6-dimethylphenyl)propyl)-3-(pyridin-3-yl)butanamide]: the IC50 was less than 0.3 µM.

Consider `Cc1cc(O)cc(C)c1C[C@@H](CNC(=O)C[C@H](c1cccnc1)C1(C(F)(F)F)CC1)N(C)C` [Compound 242, (R)-N-((S)-2-(dimethylamino)-3-(4-hydroxy-2,6-dimethylphenyl)propyl)-3-(pyridin-3-yl)-3-(1-(trifluoromethyl)cyclopropyl)propanamide], for which the IC50 is less than 0.3 µM.

As for `Cc1cc(O)cc(C)c1C[C@@H](CNC(=O)C[C@@H](c1cccnc1)C1(C(F)(F)F)CC1)N(C)C` [Compound 243, (S)-N-((S)-2-(dimethylamino)-3-(4-hydroxy-2,6-dimethylphenyl)propyl)-3-(pyridin-3-yl)-3-(1-(trifluoromethyl)cyclopropyl)propanamide], the IC50 was less than 0.3 µM.

As for `COc1ccc(C(CC(=O)NC[C@H](Cc2c(C)cc(O)cc2C)N(C)C)C2(C(F)(F)F)CC2)cn1` (stereo partly drawn) [Compound 244, N-((S)-2-(dimethylamino)-3-(4-hydroxy-2,6-dimethylphenyl)propyl)-3-(6-methoxypyridin-3-yl)-3-(1-(trifluoromethyl)cyclopropyl) propanamide], the IC50 was less than 0.3 µM.

`Cc1cc(O)cc(C)c1C[C@@H](CNC(=O)C[C@H](c1cncc(Cl)c1)C1(C(F)(F)F)CC1)N(C)C` [Compound 245, (R)-3-(5-chloropyridin-3-yl)-N-((S)-2-(dimethylamino)-3-(4-hydroxy-2,6-dimethylphenyl)propyl)-3-(1-(trifluoromethyl)cyclopropyl)propanamide]: the IC50 is less than 0.3 µM.

Take `Cc1cc(O)cc(C)c1C[C@@H](CNC(=O)CC(c1ncc(Cl)cn1)C1(C(F)(F)F)CC1)N(C)C` (stereo partly drawn) [Compound 246, 3-(5-chloropyrimidin-2-yl)-N-((S)-2-(dimethylamino)-3-(4-hydroxy-2,6-dimethylphenyl)propyl)-3-(1-(trifluoromethyl)cyclopropyl)propanamide]: the concentration for half-maximal inhibition (IC50) was less than 0.3 µM.

With `Cc1cc(O)cc(C)c1C[C@@H](CNC(=O)CC(c1cncc(F)c1)C1(C(F)(F)F)CC1)N(C)C` (stereo partly drawn) [Compound 247, N-((S)-2-(dimethylamino)-3-(4-hydroxy-2,6-dimethylphenyl)propyl)-3-(5-fluoropyridin-3-yl)-3-(1-(trifluoromethyl)cyclopropyl)propanamide], the half-maximal inhibitory concentration (IC50) was less than 0.3 µM.

Turning to `Cc1cc(O)cc(C)c1C[C@@H](CNC(=O)C1CC1c1ncccn1)N(C)C` (stereo partly drawn) [Compound 248, N-((S)-2-(dimethylamino)-3-(4-hydroxy-2,6-dimethylphenyl)propyl)-2-(pyrimidin-2-yl)cyclopropane-1-carboxamide], the IC50 under setting [1] lay within 0.3 to 3 µM.

Turning to `Cc1cc(O)cc(C)c1C[C@@H](CNC(=O)CC(c1ccc(C(F)(F)F)nc1)C1(C(F)(F)F)CC1)N(C)C` (stereo partly drawn) [Compound 249, N-((S)-2-(dimethylamino)-3-(4-hydroxy-2,6-dimethylphenyl)propyl)-3-(1-(trifluoromethyl)cyclopropyl)-3-(6-(trifluoromethyl)pyridin-3-yl)propanamide], the IC50 was less than 0.3 µM.

`Cc1cc(O)cc(C)c1C[C@@H](CNC(=O)C[C@H](C)c1ccc(Cl)cc1)N(C)C` [Compound 250, (S)-3-(4-chlorophenyl)-N-((S)-2-(dimethylamino)-3-(4-hydroxy-2,6-dimethylphenyl)propyl)butanamide]: the IC50 under setting [1] lay within 0.3 to 3 µM.

With `CC[C@H](CC(=O)NC[C@H](Cc1c(C)cc(O)cc1C)N(C)C)c1cnc(C)s1` [Compound 252, (R)-N-((S)-2-(dimethylamino)-3-(4-hydroxy-2,6-dimethylphenyl)propyl)-3-(2-methylthiazol-5-yl)pentanamide], the IC50 is less than 0.3 µM.

Take `Cc1ncc([C@@H](CC(=O)NC[C@H](Cc2c(C)cc(O)cc2C)N(C)C)C2CC2)s1` [Compound 253, (S)-3-cyclopropyl-N-((S)-2-(dimethylamino)-3-(4-hydroxy-2,6-dimethylphenyl)propyl)-3-(2-methylthiazol-5-yl)propanamide]: the IC50 is less than 0.3 µM.

With `Cc1ncc(C(CC(=O)NC[C@H](Cc2c(C)cc(O)cc2C)N(C)C)C2CC2)s1` (stereo partly drawn) [Compound 254, (S)-3-cyclopropyl-N-((S)-2-(dimethylamino)-3-(4-hydroxy-2,6-dimethylphenyl)propyl)-3-(2-methylthiazol-5-yl)propanamide], the IC50 is less than 0.3 µM.
